This note sets out measurements from the Deep4Chem optical property database.

The data set is described as follows: solvent given as SMILES.

With `Cc1cc(C)c(C2=C3C=CC(c4ccccc4O)=[N+]3[B-]3(c4ccccc4)Oc4ccccc4-c4ccc2n43)c(C)c1` (stereo not given), under “in ClC(Cl)Cl”, the emission maximum stood at 614 nm.
The compound `O=c1oc2ccc3cccc4c(O)c(Cl)c(c1Cl)c2c34` registered an emission maximum (in CC1CCCO1) of 500 nm.
For `COc1cccc2cc(C)c3c4ccccc4n(C)c3c12`, the emission maximum (in ClCCl) stood at 380 nm.
For the compound `CCn1c2cc(-c3ccc(-c4cccs4)s3)ccc2c2ccc(-c3ccc(-c4cccs4)s3)cc21`, the emission maximum (in ClCCl) amounted to 447 nm.
On to `CCn1c2cc(OC)ccc2c2c3nsnc3c3c4ccc(OC)cc4n(CC)c3c21`, for which the emission maximum is on record as 557 nm (in CN(C)C=O), 517 nm (in Cc1ccccc1) and 553 nm (in ClCCl).
For `CC1(C)c2ccccc2N(c2ccccc2)c2ccc(-c3ccc(C(=O)c4ccc(-c5ccc6c(c5)C(C)(C)c5ccccc5N6c5ccccc5)cc4)cc3)cc21`, the emission maximum was 449.72 nm (in Cc1ccccc1) and 475 nm (in O=P(c1ccccc1)(c1ccccc1)c1ccccc1Oc1ccccc1P(=O)(c1ccccc1)c1ccccc1).
On to `CC[n+]1c(C=C2C(=O)C(C=C3N(C)c4ccccc4C3(C)C)=C2[O-])[se]c2ccccc21`, for which the emission maximum came out at 661 nm (in CO) and 675 nm (in ClC(Cl)Cl).
Regarding `CCCCCCCCn1c2ccccc2c(=O)c2ccccc21`, under “in CS(C)=O”, the emission maximum is on record as 414 nm.
With `Cc1ccc(C2=C(c3ccc(C)cc3)c3cccc4c3c(cc3nc5ccccc5nc34)O2)cc1`, the emission maximum (in ClCCl) came to 559 nm.
Under “in Cc1ccccc1”, `CCCCc1ccc(-n2c3c(c4c2c2c(n4-c4ccc(CCCC)cc4)-c4cc(F)ccc4NB2c2ccccc2)B(c2ccccc2)Nc2ccc(F)cc2-3)cc1` displayed an emission maximum of 406 nm.
Under “in ClCCl”, `CC(C)(C)NC(=O)c1ccc(Br)c2ccc3c4ccc(F)cc4c4cc(F)ccc4c3c12` yielded an emission maximum of 394 nm.
`COc1ccc2c(c1)c1cc(OC)ccc1c1c2ccc2cccc(C(=O)NC(C)(C)C)c21` came in with an emission maximum (in ClCCl) of 415 nm.
`CN(C)c1ccc(/C=C/C(=O)O)cc1`: the emission maximum reads like this: (in C1CCCCC1) 399 nm; (in C1CCOC1) 418 nm; (in C1COCCO1) 414 nm; (in CC#N) 445 nm; (in CCCCO) 439 nm; (in CCCO) 441 nm. Also, the emission maximum is on record as 421 nm (in CCOC(C)=O); 453 nm (in CO); 413 nm (in Cc1ccccc1); 453 nm (in O); 416 nm (in c1ccccc1).
Take `CC(C)[Si]1(C(C)C)c2cc(C#N)ccc2-c2ccc(N(c3ccccc3)c3ccccc3)cc21`: the emission maximum by setting is: (in C1CCCCC1) 413 nm; (in CC#N) 500 nm; (in CCO) 482 nm; (in CCOCC) 436 nm; (in CS(C)=O) 500 nm; (in ClCCl) 470 nm. Besides, the emission maximum (in c1ccccc1) is reported as 432 nm.
Turning to `CCN(CC)c1ccc2c(c1)oc(=O)c1cnc3c(c(C)nn3-c3ccccc3)c12`, where the note is “in ClCCl”, the emission maximum is listed as 445 nm.
As to `COC1=[N+]2C(=C(c3ccccc3)c3ccc(OC)n3[B-]2(F)F)C=C1`, the emission maximum is given as 628 nm (in CC#N); 623 nm (in CCCCCC); 628 nm (in CCOC(C)=O); 620 nm (in CO); 630 nm (in ClCCl).
For the compound `CC1=CC(C)=[N+]2C1=C(c1ccc(-c3ccc(OS(=O)(=O)c4ccc([N+](=O)[O-])cc4[N+](=O)[O-])cc3)s1)c1c(C)cc(C)n1[B-]2(F)F`, the emission maximum worked out at 523 nm (in CO), 530 nm (in Cc1ccccc1) and 528 nm (in ClCCl).
On to `CC1=N/C(=C\c2cccc(N(C)C)c2)C(=O)N1CCO`, for which the emission maximum runs as follows: (in C1CCOC1) 585 nm; (in CC#N) 656 nm; (in CCCCCC) 506 nm.
For the compound `O=C(/C=C/c1ccc(O)c(O)c1)O[C@H](Cc1ccc(O)c(O)c1)C(=O)O`, the emission maximum is, setting by setting: (in C1CCOC1) 397 nm; (in CC#N) 413 nm; (in CCCC#N) 406 nm; (in CCO) 417 nm; (in CN(C)C=O) 420 nm; (in CO) 432 nm. Besides, the emission maximum (in CS(C)=O) is given as 432 nm, the emission maximum (in ClCCl) was determined as 396 nm and the emission maximum (in O) is 444 nm.
The compound `CC1=c2c3c4cccc5cccc(c=3c(C)[n+]2[B-](F)(F)n2c(C)c3cc6c(-c7ccccc7)c7c(c(-c8ccccc8)c6cc3c21)-c1cccc2cccc-7c12)c54` showed an emission maximum (in ClCCl) of 695 nm.
Regarding `O=C1c2cc3ccccc3cc2C2=Nc3ccc4ccccc4[n+]3[B-](F)(F)N12`, the emission maximum (in ClCCl) came out at 430 nm.
Turning to `COc1ccc(N(c2ccc(OC)cc2)c2ccc(-c3ccc(-c4ccc5nc6ccccc6c(=O)n5c4)cc3)cc2)cc1`, where the note is “in ClCCl”, the emission maximum was found to be 557 nm.
Take `CCCCCCCCCCCCOc1cc2cc(N(C)C)ccc2cc1C=O`: the emission maximum reads like this: (in C1CCOC1) 448 nm; (in CC#N) 485 nm; (in CCCCCC) 415 nm; (in CCO) 521 nm; (in CCOC(C)=O) 450 nm; (in CS(C)=O) 494 nm. The emission maximum reads like this: (in ClCCl) 469 nm; (in O) 504 nm.
The compound `c1cc2c3c(cccc3c1)-c1c-2c2ccccc2c2ccccc12` yielded an emission maximum (in CCCCCCC) of 536 nm.
`C[N+]1=C(/C=C/C=C2/N(CCC[N+](C)(C)C)c3ccccc3C2(C)C)C(C)(C)c2ccccc21` returned an emission maximum (in CS(C)=O) of 565 nm.
Take `Cc1c2ccncc2c(C)c2c1[nH]c1ccccc12`: the emission maximum by setting is: (in C1CCCCC1) 392 nm; (in C1CCOC1) 413 nm; (in C1COCCO1) 410 nm; (in CC#N) 420 nm; (in CC(C)(C)O) 420 nm; (in CC(C)O) 424 nm. The emission maximum is on record as 419 nm (in CCC(C)(C)O); 390 nm (in CCCCCC); 427 nm (in CCCCO); 429 nm (in CCO); 410 nm (in CCOC(C)=O); 405 nm (in CCOCC). The emission maximum by setting is: (in CN(C)C=O) 425 nm; (in CO) 434 nm; (in CS(C)=O) 428 nm; (in Cc1ccccc1) 403 nm.
In the case of `COc1ccc(-c2c3ccccc3c(-c3ccc(OC)cc3)c3ccccc23)cc1`, for the setting “in ClCCl”, the emission maximum is 427 nm.
The compound `Brc1ccc(/C=C/c2cnc3ccccc3n2)cc1` returned an emission maximum (in ClCCl) of 455 nm.
The compound `CC1=CC(c2ccc3cc(N(C)C)ccc3c2)=[O+][B-](F)(F)O1` displayed an emission maximum (in C1CCOC1) of 566 nm; an emission maximum (in CC#N) of 611 nm; an emission maximum (in CC(C)=O) of 492 nm; an emission maximum (in CS(C)=O) of 624 nm; an emission maximum (in Cc1ccccc1) of 521 nm; an emission maximum (in ClC(Cl)Cl) of 552 nm. Besides, the emission maximum (in ClCCl) came to 574 nm.
Consider `C[Si](C)(C)c1ccc(-c2ccc(-c3ccc(-c4ccc(-c5ccc([Si](C)(C)C)cc5)cc4)c4nsnc34)cc2)cc1`, for which the emission maximum (in C1CCOC1) came out at 516 nm.
Under “in CCO”, `CCOC(=O)/C=C/c1cc2ccc(O)cc2oc1=O` came in with an emission maximum of 430 nm.
Where the note is “in ClCCl”, `Cc1cn2cc(-c3ccc(-c4ccccc4)cc3)[n-][n+]2c1` gave an emission maximum of 466 nm.
On the same count and under the same terms, to `O=C(O)C1=C(C(=O)O)C2=C[C@H]3c4ccccc4[C@]2([Se]1)c1ccccc13` belongs 507 nm.
Regarding `B1C=Cc2ccc3ccccc3c2N1`, the emission maximum (in C1CCCCC1) was determined as 371 nm.
Take `CCCCOC(=O)/C(C#N)=C1\C(=CC2=[N+](C)c3ccccc3C2(C)C)C([O-])=C1C=C1N(C)c2ccccc2C1(C)C`: under “in ClC(Cl)Cl”, the emission maximum is 708 nm.
As for `C(=C\c1c2ccccc2cc2ccccc12)/c1cccc2ccccc12`, the emission maximum is, setting by setting: (in CC1CCCCC1) 501 nm; (in CC#N) 503 nm.
As to `c1ccc(-c2c3ccc(=[N+]4CCCCC4)cc-3oc3cc(N4CCCCC4)ccc23)cc1`, the emission maximum by setting is: (in CCO) 588 nm; (in ClCCl) 585 nm.
On to `FC(F)(F)C(F)(F)C(F)(F)C(F)(F)C(F)(F)C(F)(F)CCOc1nnc(Cl)nn1`, for which the emission maximum was determined as 566 nm (in ClCCl) and 555 nm (in OCC(F)(F)F).
On to `CCCC1(CCC)c2ccccc2-c2ccc(-c3ccc(C(C)(C)C)cc3)cc21`, for which, under “in C1CCCCC1”, the emission maximum was found to be 314 nm.
Take `CC(C)(C)c1cc(C#Cc2ccc3c(C#Cc4cc(C(C)(C)C)cc(C(C)(C)C)c4)cc4c5cc(C#Cc6cc(C(C)(C)C)cc(C(C)(C)C)c6)ccc5c(C#Cc5cc(C(C)(C)C)cc(C(C)(C)C)c5)cc4c3c2)cc(C(C)(C)C)c1`: the emission maximum (in ClCCl) stood at 439 nm.
Consider `COc1ccc(/C=C(\C#N)c2nc(-c3ccc(Cl)cc3)cs2)cc1`, for which the emission maximum (in CC#N) is 472 nm.
For the setting “in CC#N”, `O=c1ccc2ccc(C#Cc3ccccc3)cc2o1` came in with an emission maximum of 364 nm.
As to `COc1ccc(-c2cnc(-c3cccnc3)o2)cc1OC`, for the setting “in ClCCl”, the emission maximum is recorded as 420 nm.
Turning to `Cn1c2ccccc2c(=O)c2ccccc21`, the emission maximum turned out to be 417 nm (in CS(C)=O) and 430 nm (in O).
As for `CN(C)c1ccc(/C=C/c2cc[n+](CCCCC[n+]3ccc(/C=C/c4ccc(N(C)C)cc4)cc3)cc2)cc1`, the emission maximum was 603 nm (in CC1COC(=O)O1); 605 nm (in CC#N); 604 nm (in CC(C)=O); 593 nm (in CC(C)O); 598 nm (in CCO); 607 nm (in CN(C)C=O). For the same compound, the emission maximum runs as follows: (in CO) 600 nm; (in CS(C)=O) 610 nm; (in ClC(Cl)Cl) 574 nm; (in O) 597 nm; (in c1ccncc1) 596 nm.
In the case of `CC/[NH+]=c1\cc2oc3cc(NCCC(=O)NCC(=O)OC)c4ccccc4c3nc-2cc1C`, the emission maximum stood at 644 nm (in CCO) and 652 nm (in O).
